Reference: the supplement of paper PMC10627819

What was measured:
[1] = test system: S. aureus Newman; assay: fitness (endpoint OD595 vs no drug) (fraction); higher = more growth
Outline: (§1)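 Background-subtracted growth curves were the basis for fitness, taken as the optical density at entry into stationary phase over the robust mean of no-drug control wells. A cap of 1 was applied. The curves came from OD595 readings every 30 min for 14 h at 37 °C, in 384-well plates seeded at OD595 0.01 with 30 µl, or 55 µl for S. pneumoniae.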

[2] = test system: S. aureus DSM 20231; assay: as above
Outline: as §1

[3] = test system: S. aureus Newman; assay: Bliss interaction score (quartile over a dose matrix) (fitness difference); higher = more antagonism (negative = synergy)
Outline: (§2)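 Growth in each well was taken as OD595 at entry into stationary phase. Dividing by the plate's robust no-drug mean and capping at 1 gave fitness, and single-drug fitness was inferred from the combination data. The Bliss score, observed minus product-expected fitness, is summarised by quartiles over technical, biological and donor/recipient replicates.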

[4] = test system: S. pneumoniae D39V; assay: as above
Outline: as §2

[5] = test system: B. subtilis 168; assay: as above
Outline: as §2

[6] = test system: S. aureus DSM 20231; assay: as above
Outline: as §2

[7] = test system: S. pneumoniae D39V; assay: fitness (endpoint OD595 vs no drug) (fraction); higher = more growth
Outline: as §1

[8] = test system: B. subtilis 168; assay: as above
Outline: as §1
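Wherever Bliss interaction score (quartile over a dose matrix) is given: first quartile when negative (synergy) and third quartile when positive (antagonism).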

O=C(N[C@H](CO)[C@H](O)c1ccc([N+](=O)[O-])cc1)C(Cl)Cl [Chloramphenicol] + CC1=C\[C@@H](O)CC(=O)Cc2nc(co2)C(=O)N2CCC=C2C(=O)O[C@H](C(C)C)[C@H](C)/C=C/C(=O)NC\C=C\1 [Virginiamycin M1]
fitness
Settings	first compound 0.75 µg/mL	first compound 1.5 µg/mL	first compound 3 µg/mL
[1], partner 0.0625 µg/mL	0.77	0.467	0.144
[1], partner 0.125 µg/mL	0.777	0.474	0.151
[1], partner 0.25 µg/mL	0.792	0.488	0.179
[2], partner 0.0625 µg/mL	0.735	0.555	0.084
[2], partner 0.125 µg/mL	0.649	0.569	–
[2], partner 0.25 µg/mL	0.789	0.609	0.12

fitness, one replicate
Settings	first compound 0.75 µg/mL	first compound 1.5 µg/mL	first compound 3 µg/mL
[1], partner 0.5 µg/mL	0.827	0.609	0.286
[1], partner 1 µg/mL	≥ 1	0.692	0.26
[1], partner 2 µg/mL	0.815	0.683	0.153
[2], partner 0.5 µg/mL	0.884	0.601	–
[2], partner 1 µg/mL	0.811	0.535	0.149

Settings	Bliss interaction score
[3]	-0.0589
[4]	0.0662
[5]	0.0462
[6]	-0.0544

CCC[C@@H]1C[C@@H](C(=O)N[C@@H]([C@H]2O[C@H](SC)[C@H](O)[C@@H](O)[C@H]2O)[C@H](C)Cl)N(C)C1 [Clindamycin] + CCC[C@@H]1C[C@@H](C(=O)N[C@@H]([C@H]2O[C@H](SC)[C@H](O)[C@@H](O)[C@H]2O)[C@@H](C)O)N(C)C1 [Lincomycin]
Settings	fitness
[2], first compound 0.0312 µg/mL, partner 0.2 µg/mL	0.265
[2], first compound 0.0312 µg/mL, partner 0.4 µg/mL	0.137
[2], first compound 0.0625 µg/mL, partner 0.1 µg/mL	0.16
[2], first compound 0.0625 µg/mL, partner 0.2 µg/mL	0.112
[2], first compound 0.0625 µg/mL, partner 0.4 µg/mL	0.083
[2], first compound 0.125 µg/mL, partner 0.1 µg/mL	0.0376
[2], first compound 0.125 µg/mL, partner 0.2 µg/mL	0.0455
[2], first compound 0.125 µg/mL, partner 0.4 µg/mL	0.0541
[7], first compound 0.0125 µg/mL, partner 0.2 µg/mL	0.496
[7], first compound 0.0125 µg/mL, partner 0.4 µg/mL	0.351
[7], first compound 0.0125 µg/mL, partner 0.8 µg/mL	0.0708
[7], first compound 0.015 µg/mL, partner 0.215 µg/mL	0.831
[7], first compound 0.015 µg/mL, partner 0.43 µg/mL	0.741
[7], first compound 0.015 µg/mL, partner 0.86 µg/mL	0.482
[7], first compound 0.025 µg/mL, partner 0.2 µg/mL	0.356
[7], first compound 0.025 µg/mL, partner 0.4 µg/mL	0.243
[7], first compound 0.025 µg/mL, partner 0.8 µg/mL	0.0559
[7], first compound 0.03 µg/mL, partner 0.215 µg/mL	0.772
[7], first compound 0.03 µg/mL, partner 0.43 µg/mL	0.739
[7], first compound 0.03 µg/mL, partner 0.86 µg/mL	0.394
[7], first compound 0.05 µg/mL, partner 0.2 µg/mL	0.0687
[7], first compound 0.05 µg/mL, partner 0.4 µg/mL	0.0516
[7], first compound 0.05 µg/mL, partner 0.8 µg/mL	0.0164
[7], first compound 0.06 µg/mL, partner 0.215 µg/mL	0.632
[7], first compound 0.06 µg/mL, partner 0.43 µg/mL	0.524
[7], first compound 0.06 µg/mL, partner 0.86 µg/mL	0.152
[8], first compound 0.0625 µg/mL, partner 0.1 µg/mL	0.659
[8], first compound 0.0625 µg/mL, partner 0.2 µg/mL	0.613
[8], first compound 0.0625 µg/mL, partner 0.4 µg/mL	0.675
[8], first compound 0.125 µg/mL, partner 0.1 µg/mL	0.454
[8], first compound 0.125 µg/mL, partner 0.2 µg/mL	0.406
[8], first compound 0.25 µg/mL, partner 0.1 µg/mL	0.363
[8], first compound 0.25 µg/mL, partner 0.2 µg/mL	0.355
[8], first compound 0.25 µg/mL, partner 0.4 µg/mL	0.356

fitness, [8], one replicate
Settings	first compound 0.0039 µg/mL	first compound 0.0078 µg/mL	first compound 0.0156 µg/mL
partner 0.4 µg/mL	0.964	0.838	0.828
partner 0.8 µg/mL	0.965	0.803	0.83
partner 1.6 µg/mL	0.94	0.817	0.81

Settings	Bliss interaction score
[3]	-0.22
[4]	0.0748
[5]	0.193
[6]	-0.0523

O=C(O[C@@H]1Cc2c(O)cc(O)cc2O[C@@H]1c1cc(O)c(O)c(O)c1)c1cc(O)c(O)c(O)c1 [EGCG] + CC(=O)NC[C@H]1CN(c2ccc(N3CCOCC3)c(F)c2)C(=O)O1 [Linezolid]
fitness
Settings	first compound 6.25 µg/mL	first compound 12.5 µg/mL	first compound 25 µg/mL	first compound 50 µg/mL
[2], partner 0.125 µg/mL	–	0.745	0.816	0.708
[2], partner 0.25 µg/mL	–	0.551	0.559	0.563
[2], partner 0.5 µg/mL	–	0.223	0.25	0.159
[7], partner 0.105 µg/mL	–	0.735	0.634	0.752
[7], partner 0.2 µg/mL	–	0.533	0.517	0.411
[7], partner 0.21 µg/mL	–	0.604	0.688	0.64
[7], partner 0.4 µg/mL	–	0.283	0.249	0.218
[7], partner 0.42 µg/mL	–	0.505	–	0.498
[7], partner 0.8 µg/mL	–	0.12	0.0783	0.133
[8], partner 0.125 µg/mL	0.582	0.482	–	–
[8], partner 0.25 µg/mL	–	–	0.0697	–
[8], partner 0.5 µg/mL	0.0716	0.0599	0.0583	–

fitness, one replicate
Settings	first compound 6.25 µg/mL	first compound 12.5 µg/mL	first compound 25 µg/mL	first compound 50 µg/mL
[2], partner 1 µg/mL	–	0.0545	0.076	0.0554
[8], partner 0.0625 µg/mL	0.854	0.61	0.286	–

Settings	Bliss interaction score
[3]	0.0955
[4]	-0.1
[5]	0.0875
[6]	0.0748

O=C(O[C@@H]1Cc2c(O)cc(O)cc2O[C@@H]1c1cc(O)c(O)c(O)c1)c1cc(O)c(O)c(O)c1 [EGCG] + CCC[C@@H]1C[C@@H](C(=O)N[C@@H]([C@H]2O[C@H](SC)[C@H](O)[C@@H](O)[C@H]2O)[C@@H](C)O)N(C)C1 [Lincomycin]
fitness
Settings	partner 0.1 µg/mL	partner 0.2 µg/mL	partner 0.215 µg/mL	partner 0.4 µg/mL	partner 0.43 µg/mL	partner 0.8 µg/mL	partner 0.86 µg/mL
[2], first compound 12.5 µg/mL	0.593	0.505	–	0.354	–	–	–
[2], first compound 25 µg/mL	0.592	0.553	–	0.306	–	–	–
[2], first compound 50 µg/mL	0.549	–	–	0.142	–	–	–
[7], first compound 12.5 µg/mL	–	0.429	0.739	0.273	0.565	0.0193	0.389
[7], first compound 25 µg/mL	–	0.483	0.713	0.439	0.668	0.0594	0.456
[7], first compound 50 µg/mL	–	0.328	0.565	0.182	0.671	–	–
[8], first compound 6.25 µg/mL	0.889	0.88	–	0.908	–	–	–

fitness, [8], one replicate
Settings	first compound 6.25 µg/mL	first compound 12.5 µg/mL	first compound 25 µg/mL
partner 0.8 µg/mL	0.908	0.761	0.709
partner 1.6 µg/mL	0.864	0.734	0.606

Settings	Bliss interaction score
[3]	-0.056
[4]	-0.112
[5]	0.102
[6]	-0.119
